Measurements: US20220283158A1, “METHOD OF IDENTIFYING PEPTIDE ANTIGENS AND USES THEREOF” (HUMANIRAS MIRASOLE S.P.A., priority 2019, published 2022)

Tested on: C57BL6/J 8-week-old male mice
Test: Immunization of healthy mice with single peptides in adjuvant, echocardiography of heart functionality
Format: in vivo, mouse
Details: s.c. 100 μg peptide in CFA day 0, boost in IFA day 21; echocardiography at 2, 5 and 9 weeks; versus CTR- (only CFA)
Description: C57BL6/J 8-week-old male mice were screened at baseline for heart functionality, via echocardiography, and randomly divided into 5 experimental groups. Mice belonging to control group (CTR-, only CFA) were injected subcutaneously (immunized, but without antigen: negative control) with 100 μl Complete Freud's Adjuvant (CFA) at day 0 and boosted with 100 μl of Incomplete Freud's Adjuvant (IFA) on day 21. Mice belonging to group 3 (CTR+) were injected subcutaneously (immunized, known antigen: positive control) with 100 μg of each of the three peptides (SEQ ID NOs. 15-17) derived from beta-adrenergic receptor and listed in the Table of FIG. 4, emulsified in Complete Freud's Adjuvant (CFA) at day 0 and boosted with 100 μg of the three peptides emulsified in Incomplete Freud's Adjuvant (IFA) on day 21. Mice belonging to group 4_A (Peptide 4_A) were injected subcutaneously (immunized) with 100 μg of the peptide of SEQ ID NO. 1, derived from 14-3-3 protein, emulsified in Complete Freud's Adjuvant (CFA) at day 0 and boosted with 100 μg of each of the three peptides emulsified in Incomplete Freud's Adjuvant (IFA) on day 21. Mice belonging to group 4_B (Peptide 4_B) were injected subcutaneously (immunized) with 100 μg of the peptide of SEQ ID NO. 5, derived from Snrpd1 protein, emulsified in Complete Freud's Adjuvant (CFA) at day 0 and boosted with 100 μg of each of the three peptides emulsified in Incomplete Freud's Adjuvant (IFA) on day 21. Mice belonging to group 4_C (Peptide 4_C) were injected subcutaneously (immunized) with 100 μg of the peptide of SEQ ID NO. 14, derived from Atp5o protein, emulsified in Complete Freud's Adjuvant (CFA) at day 0 and boosted with 100 μg of each of the three peptides emulsified in Incomplete Freud's Adjuvant (IFA) on day 21. On day 0 and day 2, all the mice were intraperitoneally injected with 200 ng of Pertussis Toxin. Heart functionality of all mice was analyzed via echocardiography at 2, 5 and 9 weeks after the first subcutaneous injection. In FIG. 7, the results of echocardiography analysis of cardiac functionality parameters % FS and % EF of C57BL6/J mice immunized with the peptide of SEQ ID NO. 1 (14-3-3 protein), the peptide of SEQ ID NO. 5 (Snrpd1 protein), or the peptide of SEQ ID NO. 14 (Atp5o protein) are shown. […] Data are plotted as mean±SEM, (n=4-6). Two-way ANOVA and Tukey's multiple comparison test with matching subjects. * p<0.05, ** p<0.01, ***p<0.001.

## Peptide 4_A: peptide of SEQ ID NO. 1, derived from 14-3-3 protein (LGLALNFSVFYYEIL; listed as Homo sapiens)
  % EF: significantly reduced
  % FS: significantly reduced

## Peptide 4_B: peptide of SEQ ID NO. 5, derived from Snrpd1 protein (EPVQLETLSIRGNNIRYFILPDSLP; listed as Homo sapiens)
  % EF: significantly reduced
  % FS: significantly reduced

## Peptide 4_C: peptide of SEQ ID NO. 14, derived from Atp5o protein (LTANLMNLLAENGRL; listed as Mus musculus)
  % EF: significantly reduced
  % FS: significantly reduced
